Results reported in patent US8415469B2, “Compounds and methods for kinase modulation, and indications therefor” (Plexxikon Inc., priority 2005, dated 2013).

What was measured:
Assay type in all cases: biochemical
Btk = biological target: T1, Btk (Homo sapiens, UniProt Q06187); assay: Z'-Lyte FRET kinase assay (Invitrogen), Btk; details: read-out: IC50, activity toward kinase Btk
T1 construct: purchased Invitrogen (assay run by Invitrogen)

EphB2 = biological target: T2, EphB2 (Homo sapiens, UniProt P29323); assay: Z'-Lyte FRET kinase assay (Invitrogen), EphB2; details: read-out: IC50, activity toward kinase EphB2
T2 construct: purchased Invitrogen (assay run by Invitrogen)
T2 sequence (P29323 19-1055): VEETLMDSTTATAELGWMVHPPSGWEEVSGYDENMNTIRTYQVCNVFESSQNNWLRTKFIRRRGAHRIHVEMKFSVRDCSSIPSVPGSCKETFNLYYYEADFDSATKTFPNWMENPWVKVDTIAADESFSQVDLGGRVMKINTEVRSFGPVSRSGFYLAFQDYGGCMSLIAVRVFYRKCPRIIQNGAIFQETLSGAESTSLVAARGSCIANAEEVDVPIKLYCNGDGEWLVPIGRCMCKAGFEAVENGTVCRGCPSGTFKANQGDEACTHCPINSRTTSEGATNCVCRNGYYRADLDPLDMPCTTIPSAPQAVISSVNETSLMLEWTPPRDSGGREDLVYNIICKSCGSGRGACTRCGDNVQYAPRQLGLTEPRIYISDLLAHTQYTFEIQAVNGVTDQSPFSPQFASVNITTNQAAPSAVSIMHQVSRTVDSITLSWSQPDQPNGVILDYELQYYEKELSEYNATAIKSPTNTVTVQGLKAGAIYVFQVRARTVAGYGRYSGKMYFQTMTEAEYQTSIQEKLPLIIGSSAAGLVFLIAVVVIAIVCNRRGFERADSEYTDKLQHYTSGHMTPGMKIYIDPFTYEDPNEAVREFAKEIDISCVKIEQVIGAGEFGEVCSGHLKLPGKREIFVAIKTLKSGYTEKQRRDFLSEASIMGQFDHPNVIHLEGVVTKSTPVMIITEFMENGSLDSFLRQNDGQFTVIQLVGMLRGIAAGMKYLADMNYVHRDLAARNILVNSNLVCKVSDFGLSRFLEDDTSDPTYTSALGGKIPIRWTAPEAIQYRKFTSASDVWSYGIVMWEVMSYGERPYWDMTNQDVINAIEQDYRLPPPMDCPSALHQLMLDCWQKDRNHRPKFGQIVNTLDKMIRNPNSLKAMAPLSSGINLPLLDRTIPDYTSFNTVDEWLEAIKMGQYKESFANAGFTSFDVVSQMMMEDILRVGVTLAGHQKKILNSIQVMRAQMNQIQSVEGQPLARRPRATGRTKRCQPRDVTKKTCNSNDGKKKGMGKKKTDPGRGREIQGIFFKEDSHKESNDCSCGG
How it was run: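 Read-out is the coumarin-to-fluorescein emission ratio, which rises when unphosphorylated peptide is cleaved by the development protease. Reactions contain serially diluted compound, 2 μM peptide and 10 μM ATP and run for 1 h at room temperature before 1 h development.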

B-Raf = biological target: T3, B-Raf (Homo sapiens, UniProt P15056); assay: AlphaScreen kinase assay, B-Raf; details: read-out: IC50, activity toward kinase B-Raf
T3 construct: purchased Upstate Biotechnology

c-Raf-1 = biological target: T4, c-Raf-1 (Homo sapiens, UniProt P04049); assay: AlphaScreen kinase assay, c-Raf-1; details: read-out: IC50, activity toward kinase c-Raf-1
T4 construct: purchased Upstate Biotechnology

Akt3 = Akt3 (Homo sapiens, UniProt Q9Y243); assay: AlphaScreen kinase assay, Akt3; details: read-out: IC50, activity toward kinase Akt3
How it was run: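 Uses phospho-specific antibody on acceptor beads plus streptavidin donor beads capturing biotinylated peptide substrate; singlet oxygen from donor excites nearby acceptor. Inhibitors tested in 8-point, 1:3 titrations starting from 20 mM DMSO solutions.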

T3 sequence (P15056 whole entry): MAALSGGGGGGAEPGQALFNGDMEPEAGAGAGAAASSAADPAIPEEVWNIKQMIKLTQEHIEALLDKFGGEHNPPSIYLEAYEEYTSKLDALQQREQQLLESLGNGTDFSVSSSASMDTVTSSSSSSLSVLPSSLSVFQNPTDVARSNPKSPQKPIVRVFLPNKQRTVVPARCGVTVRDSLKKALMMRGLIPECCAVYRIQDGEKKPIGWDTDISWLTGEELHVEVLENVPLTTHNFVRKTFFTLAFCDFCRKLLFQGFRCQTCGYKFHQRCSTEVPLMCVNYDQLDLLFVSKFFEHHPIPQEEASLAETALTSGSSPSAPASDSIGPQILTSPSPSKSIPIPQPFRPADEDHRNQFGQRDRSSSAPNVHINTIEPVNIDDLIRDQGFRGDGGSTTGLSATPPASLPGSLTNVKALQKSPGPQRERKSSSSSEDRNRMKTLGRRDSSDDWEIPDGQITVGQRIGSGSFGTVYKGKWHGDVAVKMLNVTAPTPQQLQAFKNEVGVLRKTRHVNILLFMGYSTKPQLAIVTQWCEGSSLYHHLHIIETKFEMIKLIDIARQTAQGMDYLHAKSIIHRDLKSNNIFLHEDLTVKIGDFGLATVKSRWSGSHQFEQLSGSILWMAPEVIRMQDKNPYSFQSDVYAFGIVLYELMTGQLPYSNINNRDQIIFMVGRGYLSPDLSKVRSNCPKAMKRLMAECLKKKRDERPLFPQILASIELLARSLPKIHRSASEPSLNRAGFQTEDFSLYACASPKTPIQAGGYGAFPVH
T4 sequence (P04049 whole entry): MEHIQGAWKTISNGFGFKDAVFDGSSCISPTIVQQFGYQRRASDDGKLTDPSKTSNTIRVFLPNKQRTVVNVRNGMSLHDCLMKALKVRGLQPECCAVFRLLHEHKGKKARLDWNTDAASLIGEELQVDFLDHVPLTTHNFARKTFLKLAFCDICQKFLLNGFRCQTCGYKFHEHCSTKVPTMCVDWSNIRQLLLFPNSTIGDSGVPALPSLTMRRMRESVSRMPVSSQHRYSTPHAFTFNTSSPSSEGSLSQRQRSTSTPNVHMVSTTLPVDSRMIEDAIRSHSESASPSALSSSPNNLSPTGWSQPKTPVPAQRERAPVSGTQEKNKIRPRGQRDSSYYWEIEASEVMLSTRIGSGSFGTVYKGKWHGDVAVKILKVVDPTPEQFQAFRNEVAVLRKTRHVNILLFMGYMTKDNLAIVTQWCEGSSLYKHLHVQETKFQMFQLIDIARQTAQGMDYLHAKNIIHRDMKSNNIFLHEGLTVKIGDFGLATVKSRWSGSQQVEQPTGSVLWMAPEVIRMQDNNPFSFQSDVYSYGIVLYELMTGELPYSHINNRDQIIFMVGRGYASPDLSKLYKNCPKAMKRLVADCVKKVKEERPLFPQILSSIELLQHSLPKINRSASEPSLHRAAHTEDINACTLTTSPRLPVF
T1 sequence (Q06187 whole entry): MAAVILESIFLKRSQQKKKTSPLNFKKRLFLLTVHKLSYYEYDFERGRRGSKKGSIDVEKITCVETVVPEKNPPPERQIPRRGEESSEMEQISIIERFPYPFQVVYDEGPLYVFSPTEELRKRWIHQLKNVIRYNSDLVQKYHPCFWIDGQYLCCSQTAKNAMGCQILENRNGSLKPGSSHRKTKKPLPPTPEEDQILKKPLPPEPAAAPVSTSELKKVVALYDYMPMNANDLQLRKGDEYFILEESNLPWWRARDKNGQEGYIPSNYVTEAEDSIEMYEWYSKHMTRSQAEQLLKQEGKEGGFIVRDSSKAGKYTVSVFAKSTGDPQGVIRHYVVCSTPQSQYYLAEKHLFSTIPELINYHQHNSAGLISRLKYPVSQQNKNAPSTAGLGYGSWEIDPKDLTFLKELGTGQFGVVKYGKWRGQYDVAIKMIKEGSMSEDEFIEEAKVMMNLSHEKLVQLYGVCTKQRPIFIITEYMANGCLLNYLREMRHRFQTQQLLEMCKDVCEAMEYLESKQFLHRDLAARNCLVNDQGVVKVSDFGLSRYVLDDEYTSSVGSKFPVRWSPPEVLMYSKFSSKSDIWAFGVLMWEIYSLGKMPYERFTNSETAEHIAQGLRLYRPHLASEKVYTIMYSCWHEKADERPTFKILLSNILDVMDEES
Sequence of Akt3 (Q9Y243 whole entry): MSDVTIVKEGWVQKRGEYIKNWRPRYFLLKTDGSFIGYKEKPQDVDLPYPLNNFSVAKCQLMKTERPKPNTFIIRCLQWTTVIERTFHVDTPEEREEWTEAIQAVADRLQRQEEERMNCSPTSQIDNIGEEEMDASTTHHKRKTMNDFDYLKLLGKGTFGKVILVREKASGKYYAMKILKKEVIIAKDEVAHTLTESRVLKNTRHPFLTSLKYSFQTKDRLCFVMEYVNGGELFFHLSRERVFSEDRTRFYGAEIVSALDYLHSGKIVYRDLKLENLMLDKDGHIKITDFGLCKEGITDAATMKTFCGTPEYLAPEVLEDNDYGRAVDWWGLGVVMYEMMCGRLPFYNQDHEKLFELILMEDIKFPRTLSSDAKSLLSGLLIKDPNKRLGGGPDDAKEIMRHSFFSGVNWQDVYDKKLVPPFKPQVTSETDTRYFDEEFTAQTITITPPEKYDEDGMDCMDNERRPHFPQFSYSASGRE

IC50 (Btk) [µM] | IC50 (EphB2) [µM] | IC50 (B-Raf) [µM] | IC50 (c-Raf-1) [µM] | IC50 (Akt3) [µM] | Compound
≤ 10 |  |  |  |  | O=C(c1ccccc1F)c1c[nH]c2nccc(-c3ccsc3)c12 [Compound P-0051]
≤ 10 | ≤ 10 |  |  |  | O=C(O)/C=C/c1cccc(-c2cnc3[nH]cc(C(=O)c4ccccc4F)c3c2)c1 [Compound P-0033]
 |  | ≤ 10 | ≤ 10 | ≤ 10 | Oc1ccc(F)c(Cc2c[nH]c3ncc(Br)cc23)c1F [Compound P-0122, 3-(5-Bromo-1H-pyrrolo[2,3-b]pyridin-3-ylmethyl)-2,4-difluoro-phenol]
≤ 10 |  | ≤ 10 | ≤ 10 | ≤ 10 | O=C(c1ccc(O)cc1)c1c[nH]c2ncc(-c3cccs3)cc12 [Compound P-0024, (4-Hydroxy-phenyl)-(5-thiophen-2-yl-1H-pyrrolo[2,3-b]pyridin-3-yl)-methanone]
≤ 10 | ≤ 10 |  |  |  | Cc1ccccc1C(=O)c1c[nH]c2nccc(-c3ccc(C(N)=O)cc3)c12 [Compound P-0017]
≤ 10 | ≤ 10 |  |  |  | Cc1ccc(S(=O)(=O)NCc2c[nH]c3nccc(-c4cccc(C#N)c4)c23)cc1 [Compound P-0072]
≤ 10 | ≤ 10 |  |  |  | CS(=O)(=O)c1cccc(-c2cnc3[nH]cc(C(O)c4c(F)ccc(F)c4F)c3c2)c1 (stereo not shown) [Compound P-0020]
 |  |  |  | ≤ 10 | Cc1ccc(S(=O)(=O)NCc2c[nH]c3ncccc23)cc1 [Compound P-0058]
≤ 10 |  | ≤ 10 | ≤ 10 |  | CCCS(=O)(=O)Nc1ccc(F)c(C(=O)c2c[nH]c3ncc(OC)cc23)c1F [Compound P-0806, Propane-1-sulfonic acid [2,4-difluoro-3-(5-methoxy-1H-pyrrolo[2,3-b]pyridine-3-carbonyl)-phenyl]-amide]
≤ 10 |  |  |  |  | O=C(c1cc(F)ccc1F)c1c[nH]c2nccc(-c3cccnc3)c12 [Compound P-0063]
≤ 10 | ≤ 10 |  |  |  | Cc1ccc(F)cc1C(=O)c1c[nH]c2ncc(-c3cccc(NS(C)(=O)=O)c3)cc12 [Compound P-0028]
≤ 10 | ≤ 10 |  |  |  | O=C(c1cccc(O)c1)c1c[nH]c2nccc(Cl)c12 [Compound P-0012]
 |  | ≤ 10 | ≤ 10 |  | CCCCNC(=O)Nc1ccc(F)c(C(=O)c2c[nH]c3ncc(-c4cccnc4)cc23)c1F [Compound P-1318, 1-Butyl-3-[2,4-difluoro-3-(5-pyridin-3-yl-1H-pyrrolo[2,3-b]pyridine-3-carbonyl)-phenyl]-urea]
 | ≤ 10 | ≤ 10 |  |  | Oc1cccc(Cc2c[nH]c3ncc(-c4ccsc4)cc23)c1 [Compound P-0056]
≤ 10 |  | ≤ 10 | ≤ 10 |  | Cc1c(NS(C)(=O)=O)cccc1C(=O)c1c[nH]c2ncc(-c3ccccc3)cc12 [Compound P-0082, N-[2-Methyl-3-(5-phenyl-1H-pyrrolo[2,3-b]pyridine-3-carbonyl)-phenyl]-methanesulfonamide]
≤ 10 |  |  |  |  | COc1cc(OC)cc(C(=O)c2c[nH]c3ncc(-c4cccc(NS(C)(=O)=O)c4)cc23)c1 [Compound P-1426, N-{3-[3-(3,5-Dimethoxy-benzoyl)-1H-pyrrolo[2,3-b]pyridin-5-yl]-phenyl}-methanesulfonamide]
≤ 10 |  | ≤ 10 | ≤ 10 |  | CN(C)S(=O)(=O)Nc1ccc(F)c(Cc2c[nH]c3ncc(-c4cccnc4)cc23)c1F [Compound P-0166]
≤ 10 | ≤ 10 |  |  |  | Cc1ccccc1C(=O)c1c[nH]c2nccc(-c3cccc(N)c3)c12 [Compound P-0044]
≤ 10 |  | ≤ 10 | ≤ 10 | ≤ 10 | CS(=O)(=O)c1cccc(-c2cnc3[nH]cc(C(=O)c4cccc(O)c4F)c3c2)c1 [Compound P-0026, (2-Fluoro-3-hydroxy-phenyl)-[5-(3-methanesulfonylphenyl)1H-pyrrolo[2,3-b]pyridin-3-yl]-methanone]

IC50 (Btk) [µM] | IC50 (EphB2) [µM] | IC50 (B-Raf) [µM] | IC50 (c-Raf-1) [µM] | IC50 (Akt3) [µM] | Compound
 |  | ≤ 10 | ≤ 10 |  | CCCS(=O)(=O)Nc1ccc(F)c(C(=O)c2c[nH]c3ncc(-c4ccccc4)cc23)c1F [Compound P-0636, Propane-1-sulfonic acid [2,4-difluoro-3-(5-phenyl-1H-pyrrolo[2,3-b]pyridine-3-carbonyl)-phenyl]-amide]
≤ 10 |  |  |  |  | NC(=O)c1cccc(-c2ccnc3[nH]cc(C(=O)c4cc(F)ccc4F)c23)c1 [Compound P-0049]
 |  | ≤ 10 | ≤ 10 | ≤ 10 | Nc1cccc(-c2cnc3[nH]cc(C(=O)c4cccc(O)c4F)c3c2)c1 [Compound P-0004, [5-(3-amino-phenyl)-1H-pyrrolo[2,3-b]pyridin-3-yl]-(2-fluoro-3-hydroxy-phenyl)methanone]
≤ 10 | ≤ 10 |  |  |  | Cc1ccc(F)cc1C(=O)c1c[nH]c2ncc(-c3cccc(N)c3)cc12 [Compound P-0040]
 |  | ≤ 10 |  |  | CCCC(=O)Nc1ccc(F)c(Cc2c[nH]c3ncc(-c4cccnc4)cc23)c1F [Compound P-1280]
≤ 10 | ≤ 10 |  |  |  | NC(=O)c1ccc(-c2ccnc3[nH]cc(C(=O)c4ccccc4F)c23)cc1 [Compound P-0014]
 |  | ≤ 10 | ≤ 10 | ≤ 10 | CS(=O)(=O)c1cccc(-c2cnc3[nH]cc(C(=O)c4cc(O)ccc4F)c3c2)c1 [Compound P-0008, (2-Fluoro-5-hydroxy-phenyl)-[5-(3-methanesulfonyl-phenyl)-1H-pyrrolo[2,3-b]pyridin-3-yl]-methanone]
 | ≤ 10 | ≤ 10 | ≤ 10 |  | Oc1ccc(F)c(Cc2c[nH]c3ncc(-c4cccnc4)cc23)c1F [Compound P-0078, 2,4-difluoro-3-(5-pyridin-3-yl-1H-pyrrolo[2,3-b]pyridin-3-ylmethyl)-phenol]
≤ 10 |  | ≤ 10 |  |  | CS(=O)(=O)c1cccc(-c2ccnc3[nH]cc(C(=O)c4cc(F)ccc4F)c23)c1 [Compound P-0171]
≤ 10 |  |  |  |  | O=C(c1ccccc1F)c1c[nH]c2ncc(-c3ccsc3)cc12 [Compound P-0134]
 |  | ≤ 10 | ≤ 10 |  | O=C(Nc1ccc(Cc2c[nH]c3ncccc23)cc1)Nc1cccc(C(F)(F)F)c1 [Compound P-0262, 1-[4-(1H-Pyrrolo[2,3-b]pyridin-3-ylmethyl)-phenyl]-3-(3-trifluoromethyl-phenyl)-urea]
 |  | ≤ 10 | ≤ 10 | ≤ 10 | Nc1cccc(-c2cnc3[nH]cc(C(=O)c4cc(O)ccc4F)c3c2)c1 [Compound P-0002]
≤ 10 |  | ≤ 10 | ≤ 10 |  | COc1cccc(C(=O)c2c[nH]c3ncc(-c4cccc(NC(C)=O)c4)cc23)c1F [Compound P-1336, N-{3-[3-(2-Fluoro-3-methoxy-benzoyl)-1H-pyrrolo[2,3-b]pyridin-5-yl]-phenyl}-acetamide]
 | ≤ 10 |  |  |  | Cc1ccc(F)cc1C(=O)c1c[nH]c2nccc(-c3cccc(NS(C)(=O)=O)c3)c12 [Compound P-0124]
 |  | ≤ 10 | ≤ 10 |  | O=C(c1cccc(O)c1F)c1c[nH]c2ncc(-c3cccs3)cc12 [Compound P-0521, (2-fluoro-3-hydroxy-phenyl)-(5-thiophen-2-yl-1H-pyrrolo[2,3-b]pyridin-3-yl)-methanone]
≤ 10 |  |  |  |  | Nc1cccc(-c2ccnc3[nH]cc(C(=O)c4cc(F)ccc4F)c23)c1 [Compound P-0046]
 |  | ≤ 10 |  | ≤ 10 | O=C(c1cccc(O)c1)c1c[nH]c2ncc(-c3cccs3)cc12 [Compound P-0196]
≤ 10 |  | ≤ 10 |  | ≤ 10 | CS(=O)(=O)Nc1cccc(-c2ccnc3[nH]cc(C(=O)c4cc(F)ccc4F)c23)c1 [Compound P-0060]
 | ≤ 10 | ≤ 10 | ≤ 10 |  | O=C(c1cc(O)ccc1F)c1c[nH]c2ncc(-c3cccs3)cc12 [Compound P-0032]
